Experimental data as given in US20130310416A1, “Methods and Compositions for Preventing or Treating Age-Related Diseases” (Tartis-Aging, LLC, priority 2006, published 2013).

Tests used:
rodents = rodents (Anisimov et al., 2005); cited from earlier work
WI-38 fibroblasts = experiment: doxorubicin exposure, induction of cell senescence; assay type: cell-based, human; details: exposure to doxorubicin, FIG. 2
Method: To illustrate the relationship between the TOR pathway and cell senescence, experiments were performed using WI-38 fibroblasts, a cell line that is commonly used to investigate cell senescence (Sarraj et al., 2001). […] Cell senescence is characterized by a large and flat cell morphology, beta-galactosidase expression in the cytoplasm as a terminal, non-replicative condition.

tumor growth = details: in vitro and in vivo models; cited from earlier work
[1] = rapamycin administration (Kahan, 2004; Rodriguez et al., 2006); cited from earlier work

In the case of `CN(C)C(=N)N=C(N)N` [metformin], the life span (rodents) is listed as “extend life span”.

In the case of `[H]/N=C(/N)N/C(=N/[H])NCCc1ccccc1` [phenformin], the life span (rodents) is listed as “extend life span”.

With `COc1cccc2c1C(=O)c1c(O)c3c(c(O)c1C2=O)C[C@@](O)(C(=O)CO)C[C@@H]3O[C@H]1C[C@H](N)[C@H](O)[C@H](C)O1` [doxorubicin] the “induction of cell senescence” value (WI-38 fibroblasts) was “induces accelerated cell senescence”.

In the case of `CO[C@H]1C[C@@H]2CC[C@@H](C)[C@@](O)(O2)C(=O)C(=O)N2CCCC[C@H]2C(=O)O[C@H]([C@H](C)C[C@@H]2CC[C@@H](OC(=O)C(C)(CO)CO)[C@H](OC)C2)CC(=O)[C@H](C)/C=C(\C)[C@@H](O)[C@@H](OC)C(=O)[C@H](C)C[C@H](C)/C=C/C=C/C=C/1C` [CCI-779, Rapamycin 42-ester with 3-hydroxy-2-(hydroxymethyl)-2-methylpropionic acid], the “effect on tumor growth” value (tumor growth) is listed as “significant inhibitory effects on tumor growth”.

In the case of `CO[C@H]1C[C@@H]2CC[C@@H](C)[C@@](O)(O2)C(=O)C(=O)N2CCCC[C@H]2C(=O)O[C@H]([C@H](C)C[C@@H]2CC[C@@H](O)[C@H](OC)C2)CC(=O)[C@H](C)/C=C(\C)[C@@H](O)[C@@H](OC)C(=O)[C@H](C)C[C@H](C)/C=C/C=C/C=C/1C` [rapamycin], the “most common side effect” value [1] is given as “increase of blood lipids”.
